Experimental data reported in patent US20160214956A1, “NOVEL SOLUBLE GUANYLATE CYCLASE ACTIVATORS AND THEIR USE” (GLAXOSMITHKLINE INTELLECTUAL PROPERTY DEVELOPMENT LIMITED, priority 2013, published 2016).

Molecular target: T1, human sGC (Homo sapiens, UniProt Q02153)
T1 sequence (Q02153 1-619): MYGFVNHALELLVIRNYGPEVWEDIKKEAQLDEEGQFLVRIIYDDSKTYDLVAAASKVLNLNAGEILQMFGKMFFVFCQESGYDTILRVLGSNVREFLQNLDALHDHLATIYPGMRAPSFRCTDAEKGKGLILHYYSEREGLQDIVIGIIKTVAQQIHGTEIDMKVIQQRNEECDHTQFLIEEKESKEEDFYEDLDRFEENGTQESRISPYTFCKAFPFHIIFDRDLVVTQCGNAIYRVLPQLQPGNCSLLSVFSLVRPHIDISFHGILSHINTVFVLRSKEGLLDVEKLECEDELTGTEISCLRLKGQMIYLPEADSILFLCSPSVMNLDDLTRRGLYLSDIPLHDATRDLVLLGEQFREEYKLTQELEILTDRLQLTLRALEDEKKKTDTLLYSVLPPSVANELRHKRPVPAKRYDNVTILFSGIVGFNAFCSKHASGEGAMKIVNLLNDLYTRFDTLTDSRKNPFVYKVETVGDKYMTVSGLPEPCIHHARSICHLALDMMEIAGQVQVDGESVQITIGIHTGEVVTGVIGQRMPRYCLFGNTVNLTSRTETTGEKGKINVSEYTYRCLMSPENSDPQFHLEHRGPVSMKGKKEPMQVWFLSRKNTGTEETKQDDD
T1 sequence (Q02108 1-690 partner): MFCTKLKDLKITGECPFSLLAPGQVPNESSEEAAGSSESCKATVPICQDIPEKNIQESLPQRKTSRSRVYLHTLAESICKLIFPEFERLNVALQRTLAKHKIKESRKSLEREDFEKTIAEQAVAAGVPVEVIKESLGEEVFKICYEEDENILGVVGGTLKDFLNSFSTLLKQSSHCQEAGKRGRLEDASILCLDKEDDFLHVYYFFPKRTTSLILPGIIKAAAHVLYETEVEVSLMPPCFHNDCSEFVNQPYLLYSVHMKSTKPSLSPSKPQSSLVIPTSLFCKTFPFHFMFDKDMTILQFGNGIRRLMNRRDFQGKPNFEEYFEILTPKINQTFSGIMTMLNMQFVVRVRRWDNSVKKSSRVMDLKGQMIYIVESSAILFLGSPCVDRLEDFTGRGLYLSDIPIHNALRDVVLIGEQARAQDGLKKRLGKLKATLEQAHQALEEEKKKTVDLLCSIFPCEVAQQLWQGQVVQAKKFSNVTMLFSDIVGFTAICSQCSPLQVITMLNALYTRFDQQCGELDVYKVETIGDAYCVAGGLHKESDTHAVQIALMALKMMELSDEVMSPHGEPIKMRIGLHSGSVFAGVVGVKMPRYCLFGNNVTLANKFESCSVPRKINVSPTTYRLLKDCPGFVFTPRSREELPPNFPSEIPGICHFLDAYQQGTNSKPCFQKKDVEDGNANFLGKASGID
Experiment: sGC enzyme assay, fluorescence polarisation of labelled cGMP
Format: biochemical
Details: human sGC 1 nM, FP assay; concentration able to increase by 5-fold basal cGMP
Protocol: The activity of soluble guanylate cyclase (sGC) was tested in an assay based on measuring the fluorescent polarisation (FP) signal of fluorescently labelled cGMP. FP increased on interaction with an anti-cGMP antibody as the motility of the molecule was reduced. Newly produced cGMP displaced the interaction giving rise to a decrease in polarisation and FP signal which was equated to enzyme activity. Compounds were incubated with human sGC, anti-cGMP antibody, the GTP substrate and fluorescently labelled cGMP. After a period of one hour the assay was stopped with the addition of EDTA and after a further hour the assay was read.
Human sGC was thawed and resuspended in assay buffer (100 mM TRIS, 10 mM MgCl2, 0.2 mM Tween 20, pH7.4, containing 1:100 dilution of sheep anti-cGMP) to give final concentration of 1 nM in the well. A substrate solution was prepared containing GTP and 8-fluo-cGMP in de-ionized water to a final concentration of 25 μM and 50 nM respectively. Assay plates containing 5 μL of various test compounds and of a standard agonist (50 μM-50 nM) in 1% DMSO as 6 point, four fold dilutions across a 96 well plate were used in the assay. The plate also contained 6 wells of DMSO (1%) to produce high control and a cGMP standard curve (14 nM to 10 μM) to convert FP data to cGMP concentration. 25 μL of enzyme mix and 20 μl of substrate mix described above were added to each well of the plate. Samples were mixed on an orbital shaker and then incubated at room temperature for 1 hour. After this incubation period 5 μl of 0.5M EDTA was added to all wells and the plates were incubated for a further hour at room temperature prior to reading the FP signal in an appropriate reader. For data handling FP data were converted to cGMP concentrations and then fitted using ActivityBase software. The activity of a test compound was determined as the pEC500 value which is the concentration able to increase by 5-fold basal cGMP.

Compared with COCCOc1ccc(COc2ccccc2-c2cccc(-n3ncc(C(=O)O)c3C(F)(F)F)n2)cc1 [Example 4, 1-(6-(2-((4-(2-methoxyethoxy)benzyl)oxy)phenyl)pyridin-2-yl)-5-(trifluoromethyl)-1H-pyrazole-4-carboxylic acid], COCCCOc1ccc(COc2ccccc2-c2cccc(-n3ncc(C(=O)O)c3C(F)(F)F)n2)cc1 [Example 7, 1-(6-(2-((4-(3-methoxypropoxy)benzyl)oxy)phenyl)pyridin-2-yl)-5-(trifluoromethyl)-1H-pyrazole-4-carboxylic acid] is higher in “sGC pEC500” value: 6.6 for the first, 7.1 for the second.

Compared with N#CCCCOc1ccc(COc2ccccc2-c2cccc(-n3ncc(C(=O)O)c3C(F)(F)F)n2)cc1 [Example 8, 1-(6-(2-((4-(3-cyanopropoxy)benzyl)oxy)phenyl)pyridin-2-yl)-5-(trifluoromethyl)-1H-pyrazole-4-carboxylic acid], Cc1cc(OCCCC(=O)O)ccc1COc1ccccc1-c1cccc(-n2ncc(C(=O)O)c2C(F)(F)F)n1 [Example 12, 1-(6-(2-((4-(3-carboxypropoxy)-2-methylbenzyl)oxy)phenyl)pyridin-2-yl)-5-(trifluoromethyl)-1H-pyrazole-4-carboxylic acid] is lower in “sGC pEC500” value: 7.28 for the first, 6.59 for the second.
